Measured values reported in ChEMBL document CHEMBL1156897, “New potential antitumor compounds from the plant Aristolochia manshuriensis as inhibitors of the CDK2 enzyme” (Bioorg Med Chem Lett, 2010).

Columns and labels:
[1] = molecular target: Cyclin-dependent kinase 2 (Homo sapiens, UniProt P24941); test: Inhibition of CDK2
[2] = molecular target: Cyclin-dependent kinase 1 (Homo sapiens, UniProt P06493); test: Inhibition of CDC2
[3] = molecular target: Cyclin-dependent kinase 4 (Homo sapiens, UniProt P11802); test: Inhibition of CDK4
Chain of Cyclin-dependent kinase 4 (P11802 whole entry): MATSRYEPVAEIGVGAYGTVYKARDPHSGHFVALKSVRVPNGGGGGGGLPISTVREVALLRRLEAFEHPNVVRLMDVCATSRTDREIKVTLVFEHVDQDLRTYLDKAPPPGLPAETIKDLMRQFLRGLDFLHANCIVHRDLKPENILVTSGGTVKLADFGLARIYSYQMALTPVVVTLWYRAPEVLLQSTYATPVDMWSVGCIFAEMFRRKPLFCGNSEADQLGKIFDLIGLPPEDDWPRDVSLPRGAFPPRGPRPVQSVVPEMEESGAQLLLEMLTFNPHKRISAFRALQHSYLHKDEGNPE

[4] = Inhibition of MAPK

Chain of Cyclin-dependent kinase 1 (P06493 whole entry): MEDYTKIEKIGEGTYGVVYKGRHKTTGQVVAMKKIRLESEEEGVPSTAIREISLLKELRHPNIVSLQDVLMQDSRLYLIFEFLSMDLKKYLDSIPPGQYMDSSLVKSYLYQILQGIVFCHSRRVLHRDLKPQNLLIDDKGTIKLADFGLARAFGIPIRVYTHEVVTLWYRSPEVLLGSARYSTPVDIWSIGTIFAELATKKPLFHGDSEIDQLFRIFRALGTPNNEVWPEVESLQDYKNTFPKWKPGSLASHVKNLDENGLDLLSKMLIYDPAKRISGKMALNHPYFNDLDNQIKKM

Row | SMILES | IC50 [1] | IC50 [2] | IC50 [3] | IC50 [4]
1 | COc1c(O)cc2c3c(cc4ccc(O)cc4c13)NC2=O [ARISTOLACTAM AIIIA] | 0.14 µM | 0.214 µM | 1.42 µM | 35.3 µM
2 | O=C1Nc2cc3c(O[C@@H]4O[C@H](CO)[C@@H](O)[C@H](O)[C@H]4O)cccc3c3c4c(cc1c23)OCO4 | > 10 µM |  |  | 
